According to patent US20230167155A1, “COMPOSITIONS AND METHODS” (KING'S COLLEGE LONDON, priority 2020, published 2023):

Assays:
ApoE−/− mice [1] = settings: 22 week old animals, daily treatment for 6 weeks, clinically relevant doses; cited from earlier work
[2] = tested on: patients with stable atherosclerotic cardiovascular disease; settings: addition to aspirin; cited from earlier work
PAR1 = target: T1, PAR1 (Homo sapiens, UniProt P25116); parameters: host or cells: patients; settings: patients with stable atherosclerosis; cited from earlier work
T1 sequence (P25116 22-425): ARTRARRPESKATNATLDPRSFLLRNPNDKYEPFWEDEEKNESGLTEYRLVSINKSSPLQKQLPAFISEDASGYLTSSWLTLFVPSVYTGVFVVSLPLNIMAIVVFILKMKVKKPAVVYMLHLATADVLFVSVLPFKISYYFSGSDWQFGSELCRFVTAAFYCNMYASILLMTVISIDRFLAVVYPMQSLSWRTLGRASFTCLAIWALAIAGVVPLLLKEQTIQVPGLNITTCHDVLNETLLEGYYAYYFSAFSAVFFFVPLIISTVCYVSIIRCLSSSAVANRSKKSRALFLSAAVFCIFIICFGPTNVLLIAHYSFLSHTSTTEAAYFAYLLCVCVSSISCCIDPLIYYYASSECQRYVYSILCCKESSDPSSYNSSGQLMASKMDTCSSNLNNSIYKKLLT

ApoE−/− mice [3] = experiment: Regression of established atheroma, weekly IV injections (Oil Red O en face, aortic root); format: in vivo, mouse
Procedure: For all atherosclerosis work, male ApoE−/− mice, from the age of 6-weeks, were fed with a high fat diet (HFD) consisting 35 kcal % fat, 1.25% cholesterol, and 0.5% cholic acid (Special Diet Services, Essex UK). Aortas were transplanted 2 weeks after starting the HFD, using a sleeve anastomosis technique described previously^11. Briefly, a 5 mm of the segment of the infrarenal donor aorta, flushed with 300 μl of saline containing 50 U of heparin, was transplanted into ApoE−/− recipient abdomen aortas (N=6 per group). Blood flow was confirmed by direct inspection after removal of the clamps. Mice were fed a HFD for 6-12 weeks post-transplantation before the experiment was terminated (Suppl FIG. 1A). To assess prevention of atheroma, mice (n=6 per group) received a single injection of PTL060 or controls by tail vein, and the experiments terminated 1-3 weeks later (Suppl FIG. 1B). For regression experiments, baseline groups (n=6) were fed a HFD to the age of 22 weeks before the mice were sacrificed. Experimental or control groups (n=3-6 per group) received weekly injections by tail vein for 3-6 weeks, beginning at age of 22 weeks before the experiments were terminated when mice were 25-28 weeks old (Suppl FIG. 1C).
Atherosclerotic lesions were evaluated as previously described^11. Simply, the entire length of the aorta was perfused with PBS, dissected using a dissecting microscope, longitudinally opened and stained with Oil Red O (ORO) solution (Sigma, UK) for 30 minutes, before being photographed with a digital camera (DSC-W320, Sony, Japan). The total aortic area and lesional area were measured by using Image J. Aortas from every animal were assessed. To assess lesions in the aortic sinus, hearts were embedded in paraffin, sectioned through the aortic root and incubated with elastin/van Gieson stain using the Accustain™ Elastin Stain kit (Sigma). Sections were examined on an Olympus U-ULH optical microscope (Olympus Optical Co. Ltd, Tokyo, Japan). Atheromatous lesional and total aortic root area was determined using Image-Pro Plus TM software version 4.0 (Media Cybernetics, Silver Spring, USA). At least three random sections were examined from each mouse in all groups.

TNFα, IFNγ, MIF and CCL2 = experiment: Plasma cytokines and chemokines by ELISA; format: in vivo, mouse; settings: HFD, weekly IV for 6 weeks, equimolar to PTL060 10 μg/g
Procedure: Anticoagulated whole blood (EDTA 30 mM pH8) was separated into plasma and cells by centrifugation (14,000 g for 10 mins). Plasma TNFα, IFN-γ, MIF and CCL2 were detected using separate specific ELISA kits (R&D Systems, Abingdon, UK) according to the manufacturers' instructions. Total cholesterol, high-density lipoprotein and low-density lipoprotein were determined using kits from Cell Biolabs, and Tryglycerides with a kit from Abcam, (both Cambridge, UK) according to the manufacturer's protocol. Thrombin clotting times were measured in 3.2% trisodium citrated plasma according to the protocol of Ignjatovic^16. Briefly, 100 μl mouse plasma was incubated with 2.5 U of human thrombin in a total volume of 300 μl (Enzyme Research Laboratories (ERL), Swansea, UK) at 37° C., and the time for a clot to form was measured (n=6 per group). For some experiments plasma was further centrifuged (20,000 g for 10 mins) to minimise the presence of extracellular vesicles.
FIG. 18: Illustrating the systemic proinflammatory state that accompanies development of atherosclerosis in ApoE^−/− mice fed a high fat diet, and the impact of PTL032 on that inflammation, compared to PTL060 and controls. Cytokines (interferon-gamma TNFalpha) and chemokines (macrophage migration inhibitory factor, MIF and CCL2) measured by ELISA of plasma samples harvested from mice at the times indicated. HFD=high fat diet. […]

MIF = experiment: Vessel wall chemokine (MIF, CCL2) expression after IV injection, immunofluorescence; format: in vivo, mouse; settings: single IV injection, PTL060 or equimolar dose
Procedure: Immunohistology of frozen cross sections were prepared and examined as previously described^11. Briefly, isolated tissues were snap-frozen and embedded in OCT compound (VWR International, Dorset, UK), sectioned at 5 μm thickness and fixed in methanol at −20° C. Frozen sections were immersed in 1% bovine serum albumin-phosphate-buffered saline (BSA-PBS) for 30 minutes and then incubated overnight at 4° C. with one or more of the following antibodies: rabbit polyclonal antibody to CD68, iNOs, CD206, TNFα, MIF, CCR7 ABCA1 (all from Abcam, Cambridge, UK), or hirudin (Biobyt, Cambridge, UK) or CCL2 (Lifespan BioScience, Inc., WA 98121, USA); goat polyclonal antibody to CD31 (Santa Cruz Biotechnology, Texas 75220, USA); rat anti-mouse CD68, CD11b (Serotec, Oxford, United Kingdom), CD31, IFNγ (BD Bioscience Pharmingen, Oxford, United Kingdom), Ly-6G (BioLegend, London, UK), IL-10 (Abcam) or biotinylated anti-HLL (RICS-2)^14; mouse anti-CCR2 (Abcam). […] Quantification of staining was achieved by expressing the area of positive staining as a ratio of the total lesion area, calculated using Image-Pro Plus TM, version 4.0. All quantification was performed by members of the team blinded to the identity of the sections. […] To detect macrophage-derived foam cells, frozen sections of aortic sinus were analysed by a combination of ORO staining and CD68 immunostaining. […]

For `O=C(NC[C@H]1CN(c2ccc(N3CCOCC3=O)cc2)C(=O)O1)c1ccc(Cl)s1` [rivaroxaban], the “atheroma burden reduced by” value (ApoE−/− mice [1]) is listed as 25% and the “deaths, strokes and myocardial infarction” value [2] is listed as “fewer deaths, strokes and myocardial infarction”.

For `CCOC(=O)N[C@@H]1CC[C@@H]2[C@@H](C1)C[C@H]1C(=O)O[C@H](C)[C@H]1[C@H]2/C=C/c1ccc(-c2cccc(F)c2)cn1` [vorapaxar], the “risk of myocardial infarction” value (PAR1) is given as “reduce the risk of myocardial infarction”.

In the case of “[Myr2]-KSSKSPSKKDDKKPGDC(S—S—CH2-CH2-Phe-Cha-Cha-Arg-Lys-Pro-Asn-Asp-Lys-NH2)NH2 [PTL032]”, the “animals with atherosclerotic plaques essentially completely eliminated” value (ApoE−/− mice [3]; HFD 16 weeks, then PTL032 7 μg/g weekly IV for 6 weeks) is reported as 4 out of the 6, the “regression of atherosclerosis in direct comparison with PTL060” value (ApoE−/− mice [3]; equimolar doses (PTL032 7 μg/g, PTL060 10 μg/g), weekly IV 6 weeks) is reported as “considerably better regression of atherosclerosis than PTL060” and the “plasma chemokines and cytokines (IFNγ, TNFα, MIF, CCL2)” value (TNFα, IFNγ, MIF and CCL2) is reported as “suppression of important chemokines and cytokines, almost back to levels seen in very young mice”.

In the case of bivalirudin, the “atheroma burden after weekly injections” value (ApoE−/− mice [3]; HFD from age 6 to 22 weeks, then weekly IV for 6 weeks, PTL060 10 μg/g or equimolar doses of controls) is reported as “developed increasing atheroma burden equivalent to that seen in saline control mice” and the “suppression of vessel wall chemokine (MIF) expression” value (MIF) is reported as “not”.
